Measured values taken from patent publication US4816482A, “Radioprotective agents having an amino-thioalkyl structure” (priority 1983, dated 1989).
Structures can show the parent of a compound that is named as a salt. Where two headings read alike, the source gives them in different places.

Tests used:
[1] = test system: mice; test: Radioprotective activity: survival at the 30th day after irradiation; type: in vivo; conditions: for responders at 400 mg/kg: 400 mg/kg i.p.; for responders at 1000 mg/kg: 1,000 mg/kg i.p.; for responders at 625 mg/kg: 625 mg/kg i.p.; for radioprotective activity (in words): mouse, in vivo; for responders at 500 mg/kg: 500 mg/kg i.p.
Description: This study of radioprotective activity was carried out according to a technique described by M. Fatome at al., Eur. J. Med. Chem. 1977, 12, (1), 93. […] This dose is equal to 950 Rad.
More complete studies are recorded in Table II.

[2] = test system: mice; test: Acute toxicity (LD50), i.p.; type: in vivo; conditions: for LD50: Table I
[3] = Acute toxicity (LD50), i.p.; type: in vivo, mice; conditions: mouse, in vivo, ip
[4] = Mus musculus, light or radiation study, ip, 720 h, Table I, 750 mg/kg i.p., 15' before irradiation at 900 or 950 Rad, read-out: % survival at the 30th day
[5] = Mus musculus, light or radiation study, ip, 720 h, Table I, 15' before irradiation at 900 or 950 Rad, read-out: % survival at the 30th day
[6] = Mus musculus, light or radiation study, ip, 720 h, read-out: % survival at the 30th day, Table I, 750 mg/kg i.p., 15' before irradiation at 900 or 950 Rad
[7] = Mus musculus, light or radiation study, ip, 720 h, read-out: % survival at 30 days, Table II, 750 mg/kg i.p., 15' before irradiation, 900 Rad
[8] = Mus musculus, light or radiation study, ip, 720 h, read-out: % survival at 30 days, Table II, 750 mg/kg i.p., 2 hours before irradiation, 900 Rad
[9] = Mus musculus, light or radiation study, ip, 720 h, Table II, 15' before irradiation, 900 Rad, read-out: % survival at 30 days
[10] = Mus musculus, light or radiation study, ip, 720 h, Table II, 15' before irradiation, 1,100 Rad, read-out: % survival at 30 days
[11] = Mus musculus, light or radiation study, ip, 720 h, Table II, 15' before irradiation, 950 Rad, read-out: % survival at 30 days

`Br.CC(=O)SCCNC(=O)CN` [Example 2, HYDROBROMIDE] showed a responders at 187 mg/kg ([1]; Mus musculus, light or radiation study, ip, 720 h, Table I, 187 mg/kg i.p., 15' before irradiation at 900 or 950 Rad, read-out: % survival at the 30th day) of 67% and a responders at 750 mg/kg [1, 4] of 100%.

With `Br.CC(=O)SCCNC(=O)CN` [Example 2] the LD50 [2] was 1,500 mg/kg.

Compound `Br.CC(=O)SCCNC(=O)[C@H](C)N` [Example 4, HYDROBROMIDE] has a responders at 188 mg/kg ([1]; Mus musculus, light or radiation study, ip, 720 h, Table I, 188 mg/kg i.p., 15' before irradiation at 900 or 950 Rad) of 40% and a responders at 750 mg/kg [1, 4] of 80%.

For `Br.CC(=O)SCCNC(=O)[C@H](C)N` [Example 4], the LD50 [2] was 1,500 mg/kg.

In the case of `Br.CC(=O)SCCNC(=O)CCCN` [Example 6, HYDROBROMIDE], the responders at 400 mg/kg [1, 5] is reported as 60%.

Work on `Br.CC(=O)SCCNC(=O)CCCN` [Example 6] yielded an LD50 [2] of 800 mg/kg.

With `CC(=O)SCCNC(=O)CN` [Example 8] the “% survival at the 30th day” value ([1]; Table I, 750 mg/kg i.p., 15' before irradiation at 900 or 950 Rad) was 93%, the “% survival at 30 days” value ([1]; Table II, 187 mg/kg i.p., 15' before irradiation, 900 Rad) was 0% and the “% survival at 30 days” value ([1]; Table II, 750 mg/kg i.p., 15' before irradiation, 900 Rad) was 93%. For the same compound, the “% survival at 30 days” value ([1]; Table II, 750 mg/kg i.p., 15' before irradiation, 1,100 Rad) was 50%, the LD50 ([3]; Table I) was 1200 mg/kg and the LD50 ([3]; Table II) was 1200 mg/kg.

With `NCC(=O)NCCSC(=O)C(Cl)Cl.O=C(O)C(F)(F)F` [Example 10, N-GLYCYL-S-(DICHLOROACETYL)CYSTEAMINE TRIFLUOROACETATE] the responders at 800 mg/kg ([1]; Mus musculus, light or radiation study, ip, 720 h, Table I, 800 mg/kg i.p., 15' before irradiation at 900 or 950 Rad) was 40% and the LD50 [2] was 800 mg/kg.

For `Br.Br.NCC(=O)NCCSSCCNC(=O)CN` [Example 16, N,N'-[…] DIHYDROBROMIDE], the responders at 750 mg/kg [1, 6] was 100% and the LD50 [2] was 1,500 mg/kg.

With `NCC(=O)NCCSSCCNC(=O)CN.O=C(O)C(F)(F)F.O=C(O)C(F)(F)F` [Example 18, N,N'-[…] DI(TRIFLUOROACETATE)] the responders at 47 mg/kg ([1]; Mus musculus, light or radiation study, ip, 720 h, read-out: % survival at 30 days, Table II, 47 mg/kg i.p., 15' before irradiation, 900 Rad) was 0%, the responders at 94 mg/kg ([1]; Mus musculus, light or radiation study, ip, 720 h, read-out: % survival at 30 days, Table II, 94 mg/kg i.p., 15' before irradiation, 900 Rad) was 30% and the responders at 187 mg/kg ([1]; Mus musculus, light or radiation study, ip, 720 h, read-out: % survival at 30 days, Table II, 187 mg/kg i.p., 15' before irradiation, 900 Rad) was 90%. The responders at 187 mg/kg ([1]; Mus musculus, light or radiation study, ip, 720 h, read-out: % survival at 30 days, Table II, 187 mg/kg i.p., 15' before irradiation, 1,100 Rad) was 0%, the responders at 750 mg/kg [1, 7] was 100% and the responders at 750 mg/kg ([1]; Mus musculus, light or radiation study, ip, 720 h, read-out: % survival at 30 days, Table II, 750 mg/kg i.p., 15' before irradiation, 1,300 Rad) was 10%. For the same compound, the responders at 750 mg/kg [1, 8] was 60%, the responders at 1000 mg/kg ([1]; Mus musculus, light or radiation study, ip, 720 h, read-out: % survival at 30 days, Table II, 15' before irradiation, 1,300 Rad) was 0% and the “% survival at the 30th day” value ([1]; ip, 750 mg/kg, 720 h) was 100%. The LD50 ([3]; Table I) was 1200 mg/kg and the LD50 ([3]; Table II) was 1250 mg/kg.

`Br.Br.C[C@H](N)C(=O)NCCSSCCNC(=O)[C@H](C)N` [Example 19, N,N'-[…] DIHYDROBROMIDE] showed a responders at 400 mg/kg ([1]; Mus musculus, light or radiation study, ip, 720 h, read-out: % survival at the 30th day, Table I, 15' before irradiation at 900 or 950 Rad) of 100% and an LD50 ([3]; Table I) of 800 mg/kg.

For `CC(=O)SCCNC(=O)[C@H](C)N.O=C(O)C(F)(F)F` [Example 22, TRIFLUOROACETATE], the responders at 156 mg/kg ([1]; Mus musculus, ip, 720 h, Table II, 156 mg/kg i.p., time and Rad not given, read-out: % survival at 30 days) was 0%, the responders at 625 mg/kg [1, 5] was 100% and the responders at 625 mg/kg ([1]; Mus musculus, light or radiation study, ip, 720 h, Table II, 2 (hours, cut off) before irradiation, 900 Rad, read-out: % survival at 30 days) was 10%. The responders at 625 mg/kg [1, 9] was 100% and the responders at 625 mg/kg [1, 10] was 50%.

For `CC(=O)SCCNC(=O)[C@H](C)N.O=C(O)C(F)(F)F` [Example 22], the “radioprotective activity (in words)” value [1] was “good radioprotection”, the LD50 [2] was 1,250 mg/kg and the “toxicity (in words)” value ([2]; mouse, in vivo) was “low toxicity”. For the same compound, the LD50 ([3]; Table II) was 1250 mg/kg.

Compound `CC(=O)NC(C)(C)CSC(=O)CN.O=C(O)C(F)(F)F` [Example 24, TRIFLUOROACETATE] has a responders at 750 mg/kg [1, 7] of 70%, a responders at 750 mg/kg ([1]; Mus musculus, light or radiation study, ip, 720 h, read-out: % survival at 30 days, Table II, 750 mg/kg i.p., 15' before irradiation, 1,100 Rad) of 13% and a responders at 750 mg/kg [1, 8] of 50%. The responders at 750 mg/kg [1, 6] was 70%.

With `CC(=O)NC(C)(C)CSC(=O)CN.O=C(O)C(F)(F)F` [Example 24] the “radioprotective activity (in words)” value [1] was “show radioprotective activity”, the LD50 ([3]; Table I) was 1500 mg/kg and the LD50 ([3]; Table II) was 1500 mg/kg.

In the case of `CC(=O)SCC(C)(C)NC(=O)CN` [Example 26, TRIFLUOROACETATE], the responders at 750 mg/kg ([1]; Mus musculus, ip, 720 h, Table II, 750 mg/kg i.p., 4th entry, time and Rad not given, read-out: % survival at 30 days) is reported as 0%, the responders at 750 mg/kg [1, 4] is reported as 60% and the responders at 187 mg/kg ([1]; Mus musculus, light or radiation study, ip, 720 h, Table II, 187 mg/kg i.p., 15' before irradiation, 900 Rad, read-out: % survival at 30 days) is reported as 40%. For the same compound, the responders at 750 mg/kg ([1]; Mus musculus, light or radiation study, ip, 720 h, Table II, 750 mg/kg i.p., 15' before irradiation, 900 Rad, read-out: % survival at 30 days) was 60%, the responders at 750 mg/kg ([1]; Mus musculus, light or radiation study, ip, 720 h, Table II, 750 mg/kg i.p., 2 hours before irradiation, 900 Rad, read-out: % survival at 30 days) was 70% and the “radioprotective activity (in words)” value [1] was “show radioprotective activity”. It also gave an LD50 ([3]; Table I) of 1200 mg/kg and an LD50 ([3]; Table II) of 1200 mg/kg.

For `CC(=O)SCCNC(=O)CNC(=O)CN.O=C(O)C(F)(F)F` [Example 28, TRIFLUOROACETATE], the responders at 1000 mg/kg [1, 5] was 100%, the responders at 1000 mg/kg [1, 9] was 100% and the responders at 1000 mg/kg [1, 10] was 0%. For the same compound, the responders at 1500 mg/kg ([1]; Mus musculus, light or radiation study, ip, 720 h, Table II, 1,500 mg/kg i.p., 15' before irradiation, Rad not printed (1,100 in text), read-out: % survival at 30 days) was 100%.

In the case of `CC(=O)SCCNC(=O)CNC(=O)CN.O=C(O)C(F)(F)F` [Example 28], the “survival at 30 days” value ([1]; mice, 1,500 mg/kg (i.p.) 15 minutes before irradiation of 1,100 Rad) is reported as 100%, the LD50 [3] is reported as over 2000 mg/kg and the LD50 ([3]; Table I) is reported as over 2000 mg/kg. For the same compound, the LD50 ([3]; Table II) was over 2000 mg/kg.

In the case of `CC(=O)OC(CNC(=O)CN)CSSCC(CNC(=O)CN)OC(C)=O` (stereo not drawn) [Example 31, 1,2-DI(3-GLYCYLAMINO-2-ACETOXYPROPYL)[…](TRIFLUOROACETATE)], the “% survival at 30 days” value ([1]; ip, 93.7 mg/kg, 720 h) is reported as 0%, the “% survival at the 30th day” value ([1]; ip, 375 mg/kg) is reported as 60% and the LD50 ([3]; Table I) is reported as 750 mg/kg. The LD50 ([3]; Table II) was 750 mg/kg.

`CC(=O)NCCSC(=O)CN.O=C(O)C(F)(F)F` [Example 34, TRIFLUOROACETATE] showed a responders at 500 mg/kg [1, 5] of 70%, a responders at 125 mg/kg ([1]; Mus musculus, light or radiation study, ip, 720 h, Table II, 125 mg/kg i.p., 15' before irradiation, 950 Rad, read-out: % survival at 30 days) of 20% and a responders at 500 mg/kg [1, 11] of 70%.

Work on `NCC(=O)NCC(=O)NCCSSCCNC(=O)CNC(=O)CN.O=C(O)C(F)(F)F.O=C(O)C(F)(F)F` [Example 36, N,N'-DI(GLYCYLGLYCYL)CYSTAMINE DI(TRIFLUOROACETATE)] yielded a responders at 1000 mg/kg [1, 5] of 30%, a responders at 250 mg/kg ([1]; Mus musculus, light or radiation study, ip, 720 h, Table II, 250 mg/kg i.p., 15' before irradiation, 950 Rad, read-out: % survival at 30 days) of 10% and a responders at 1000 mg/kg [1, 11] of 30%. The LD50 ([3]; Table I) was 2000 mg/kg and the LD50 ([3]; Table II) was 2000 mg/kg.
